One test deals with T1, human P2X2/3 receptors (Homo sapiens, UniProt P56373+Q9UBL9).
T1 construct: expressed in transfected cells; host or cells: human astrocytoma 1321N1 (1312N1 [sic])
T1 sequence (P56373 1-397): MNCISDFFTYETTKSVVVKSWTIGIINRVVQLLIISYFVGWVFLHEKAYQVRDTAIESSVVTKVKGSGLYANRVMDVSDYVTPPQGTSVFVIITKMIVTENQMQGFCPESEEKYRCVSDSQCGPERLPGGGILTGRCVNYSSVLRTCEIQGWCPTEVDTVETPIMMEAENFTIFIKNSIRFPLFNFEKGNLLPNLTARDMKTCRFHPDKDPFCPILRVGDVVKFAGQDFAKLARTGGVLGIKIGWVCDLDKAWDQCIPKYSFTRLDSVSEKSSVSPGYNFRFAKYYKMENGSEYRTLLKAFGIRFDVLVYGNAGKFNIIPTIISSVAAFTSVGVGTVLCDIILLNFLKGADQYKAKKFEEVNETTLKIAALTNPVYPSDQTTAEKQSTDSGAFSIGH
T1 sequence (Q9UBL9 1-471): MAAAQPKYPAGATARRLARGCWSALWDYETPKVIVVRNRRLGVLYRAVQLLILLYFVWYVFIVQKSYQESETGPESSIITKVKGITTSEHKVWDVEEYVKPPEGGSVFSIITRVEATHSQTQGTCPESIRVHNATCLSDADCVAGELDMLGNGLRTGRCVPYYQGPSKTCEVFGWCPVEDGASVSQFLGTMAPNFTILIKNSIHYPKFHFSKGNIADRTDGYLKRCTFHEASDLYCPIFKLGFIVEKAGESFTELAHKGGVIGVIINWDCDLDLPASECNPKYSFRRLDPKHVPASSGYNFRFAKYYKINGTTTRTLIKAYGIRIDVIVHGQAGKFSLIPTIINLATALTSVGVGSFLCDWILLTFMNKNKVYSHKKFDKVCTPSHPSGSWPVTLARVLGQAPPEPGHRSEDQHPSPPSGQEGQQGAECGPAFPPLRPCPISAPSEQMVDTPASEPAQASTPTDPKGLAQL
Briefly: Intracellular calcium measurement, antagonist activity at human P2X2/3 receptors (hP2X23 1321N1), Fluo8. Type of test: cell-based. Particulars: column 4); 1321N1 cells, human P2X2/3, Fluo8, agonist ATP at EC50; read-out: 4) hP2X2/3 IC50 [nM] (1321N1). The procedure: 3) And 4) Intracellular Calcium Measurement to Compare Antagonist Activity at Human P2X3 Receptors (hP2X3 1321N1) and at Human P2X2/3 Receptors (hP2X23 1321N1)
The comparison of antagonistic activity at the P2X3 versus the P2X2/3 receptor of the compounds of the invention were performed by use of recombinant cell lines. These cell lines derived originally from the human astrocytoma cell line […] (Macintyre E H, Pontén J, Vatter A E. Acta Pathol Microbiol Scand A. 1972; 80(2):267-83). The cell lines are stably transfected with the human P2X3 receptor forming homotrimeric P2X3 receptors or are co-transfected with P2X2 and P2X3 forming heterotrimeric P2X2/3 receptors. Stimulation of the receptors with the agonist ATP leads to a conformational change of the receptors and influx of extracellular calcium ions through the open ion channel. The cytoplasmatic calcium transient is detected via the calcium sensitive dye Fluo8. The strength of Fluo8 fluorescence signal corresponds to the level of receptor activation. An inhibitor would decrease the signal depending on its potency and concentration. Fluorescence was measured by use of a suitable fluorescence reader.
On the day before the assay, the cells were plated in culture medium (DMEM high glucose, 10% FCS, 1% MEM non-essential amino acids, 4 mM Glutamax) in 384-well poly-D-lysine coated microtiter plates and kept in a cell incubator (96% humidity, 5% v/v CO2, 37° C.). On the day of the assay medium was exchanged by Fluo8 containing buffer and incubated for 60 minutes. Test compounds were added at various concentrations and plates were incubated for 10 minutes. In the fluorescence reader a 3 seconds baseline measurement was performed and the agonist ATP was applied at EC50 concentration of the respective receptor during constant fluorescence measurement for 120 seconds.

The target of the next test is T2, human P2X3 receptor (Homo sapiens, UniProt P56373).
T2 sequence (P56373 1-397): T1 sequence (P56373 1-397)
Briefly: Intracellular calcium measurement to assess antagonist activity at human P2X3 receptors (hP2X3 CHO), photina luminescence. The class given is cell-based. Set-up: expressed in transfected cells; host or cells: Chinese hamster ovary (CHO) cells. Particulars: column 2), CHO cells, agonist α,β-methylene-ATP at EC50. The procedure:
2) Intracellular Calcium Measurement to Assess Antagonist Activity at Human P2X3 Receptors (hP2X3 CHO)
The determination of antagonistic activity at the P2X3 receptor of the compounds of the invention was performed by use of a recombinant cell line. This cell line derives originally from the Chinese hamster ovary (CHO) cell line (Tjio J. H.; Puck T. T., 1958, J. Exp. Med. 108: 259-271). The cell line is stably transfected with the human P2X3 receptor and a calcium-sensitive photoprotein, mitochondrial photina, which, after reconstitution with the cofactor coelenterazine, emits light in dependence of calcium binding [Bovolenta S, Foti M, Lohmer S, Corazza S., J Biomol Screen. 2007 August; 12(5):694-704]. The strength of the photina luminescence signal corresponds to the level of receptor activation upon agonist binding. An inhibitor would decrease the signal depending on its potency and concentration. Bioluminescence was detected using a suitable luminometer [Milligan G, Marshall F, Rees S, Trends in Pharmacological Sciences 17,235-237 (1996)].
On the day before the assay, the cells were plated out in culture medium (DMEM/F12 (PAN, P04-41451), 10% FCS) in 384-well microtiter plates and kept in a cell incubator (96% humidity, 5% v/v CO2, […]). On the day of the assay medium was replaced by 2 mM Ca-tyrode buffer containing 5 μg/ml coelenterazine. Plates were incubated for 3 hours at 37° C. (96% humidity, 5% v/v CO2). […] The resulting light signal was measured immediately in the luminometer.

Structures can show the parent of a compound that is named as a salt.

As to `CCc1cc2n(CC(=O)Nc3ccc(F)cn3)c3c(c(=O)n2n1)CN(C(C)COCc1ccccc1)C3=O` (racemic) [Example 121, 2-{6-[(±)-1-(benzyloxy)propan-2-yl]-2-ethyl-5,8-dioxo-5,6,7,8-tetrahydro-4H-pyrazolo[1,5-a]pyrrolo[3,4-d]pyrimidin-4-yl}-N-(5-fluoropyridin-2-yl)acetamide], the IC50 at human P2X2/3 receptors came out at 1160 nM; at human P2X3 receptor, 51 nM.

`CC(C)N1Cc2c(n(CC(=O)Nc3ccc(F)cn3)c3cc(C4CCC(=O)N4C)nn3c2=O)C1=O` (racemic) [Example 231, N-(5-fluoropyridin-2-yl)-2-{2-[(±)-1-methyl-5-oxopyrrolidin-2-yl]-5,8-dioxo-6-(propan-2-yl)-5,6,7,8-tetrahydro-4H-pyrazolo[1,5-a]pyrrolo[3,4-d]pyrimidin-4-yl}acetamide]: the figures for the IC50 at human P2X2/3 receptors and at human P2X3 receptor were > 23500 nM and 95 nM, respectively.

For `CCc1cc2n(CC(=O)Nc3ccc(F)cn3)c3c(c(=O)n2n1)CN(Cc1ccc(C)nc1)C3=O` [Example 117], the IC50 amounted to 6150 nM at human P2X2/3 receptors and 27 nM at human P2X3 receptor.

As for `CCc1cc2n(CC(=O)Nc3ccc(F)cn3)c3c(c(=O)n2n1)CN(C(C)(C)COCc1ccccc1)C3=O` [Example 120, 2-{6-[1-(benzyloxy)-2-methylpropan-2-yl]-2-ethyl-5,8-dioxo-5,6,7,8-tetrahydro-4H-pyrazolo[1,5-a]pyrrolo[3,4-d]pyrimidin-4-yl}-N-(5-fluoropyridin-2-yl)acetamide], the IC50 at human P2X2/3 receptors is 345 nM; at human P2X3 receptor it was 5 nM.

Regarding `Cc1ccc(-c2cc3n(CC(=O)Nc4ccc(F)cn4)c4c(c(=O)n3n2)CN([C@H]2CCOC2)C4=O)nc1` [Example 161, N-(5-fluoropyridin-2-yl)-2-{2-(5-methylpyridin-2-yl)-5,8-dioxo-6-[(3S)-oxolan-3-yl]-5,6,7,8-tetrahydro-4H-pyrazolo[1,5-a]pyrrolo[3,4-d]pyrimidin-4-yl}acetamide], the IC50 at human P2X2/3 receptors came out at 1350 nM; on human P2X3 receptor it was 24 nM.

On to `COC[C@H](C)N1Cc2c(n(CC(=O)Nc3ccc(F)cn3)c3cc(-c4ccc(C)cn4)nn3c2=O)C1=O` [Example 162], for which the IC50 was determined as 1200 nM on human P2X2/3 receptors and 6 nM at human P2X3 receptor.

For the compound `COC[C@H](C)N1Cc2c(n(CC(=O)Nc3ccc(F)cn3)c3cc(C(=O)Nc4ccon4)nn3c2=O)C1=O` [Example 215], on human P2X3 receptor, the IC50 was determined as 63 nM.

As for `COC[C@H](C)N1Cc2c(n(CC(=O)Nc3ccc(F)cn3)c3cc(C(=O)Nc4ncccn4)nn3c2=O)C1=O` [Example 217], the IC50 at human P2X3 receptor was found to be 70 nM.

On to `O=C(Cn1c2c(c(=O)n3nc(C(=O)Nc4ccccc4F)cc13)CN(C1CCOCC1)C2=O)Nc1ccc(F)cn1` [Example 219], for which the IC50 at human P2X3 receptor amounted to 180 nM.

As for `O=C(Cn1c2c(c(=O)n3nc(C(=O)Nc4ccccc4F)cc13)CN(CCN1CCOCC1)C2=O)Nc1ccc(F)cn1` [Example 220], the IC50 at human P2X3 receptor is 45 nM.

Take `COC[C@H](C)N1Cc2c(n(CC(=O)Nc3ccc(F)cn3)c3cc(C(=O)Nc4ccccc4F)nn3c2=O)C1=O` [Example 221]: the IC50 at human P2X3 receptor is 30 nM.

As for `CC(C)N1Cc2c(n(CC(=O)Nc3ccc(F)cn3)c3cc(C(=O)NCCCO)nn3c2=O)C1=O` [Example 224], the IC50 on human P2X3 receptor stood at 145 nM.

`CC(C)N1Cc2c(n(CC(=O)Nc3ccc(F)cn3)c3cc(C4CN(C(=O)OC(C)(C)C)C4)nn3c2=O)C1=O` [Example 230, tert-butyl 3-[4-{2-[(5-fluoropyridin-2-yl)amino]-2-oxoethyl}-5,8-dioxo-6-(propan-2-yl)-5,6,7,8-tetrahydro-4H-pyrazolo[1,5-a]pyrrolo[3,4-d]pyrimidin-2-yl]azetidine-1-carboxylate]: the IC50 at human P2X3 receptor stood at 115 nM.

`CC(C)N1Cc2c(n(CC(=O)Nc3ccc(F)cn3)c3cc(CN4CCCC4=O)nn3c2=O)C1=O` [Example 232, 2-{5,8-dioxo-2-[(2-oxopyrrolidin-1-yl)methyl]-6-(propan-2-yl)-5,6,7,8-tetrahydro-4H-pyrazolo[1,5-a]pyrrolo[3,4-d]pyrimidin-4-yl}-N-(5-fluoropyridin-2-yl)acetamide]: the IC50 on human P2X3 receptor worked out at 53 nM.

On to `CCc1cc2n(CC(=O)Nc3ccc(F)cn3)c3c(c(=O)n2n1)CN(C1CCNCC1)C3=O` [Example 237], for which the IC50 on human P2X3 receptor came to 1950 nM.

For `CC(C)N1Cc2c(n(CC(=O)Nc3ccc(F)cn3)c3cc(N)nn3c2=O)C1=O` [Example 241, 2-[2-amino-5,8-dioxo-6-(propan-2-yl)-5,6,7,8-tetrahydro-4H-pyrazolo[1,5-a]pyrrolo[3,4-d]pyrimidin-4-yl]-N-(5-fluoropyridin-2-yl)acetamide hydrochloride (1:1)], the IC50 on human P2X3 receptor was 625 nM.

In the case of `CCc1cc2n(CC(=O)Nc3ccc(F)cn3)c3c(c(=O)n2n1)CN(CC1CNC1)C3=O` [Example 242], on human P2X3 receptor, the IC50 worked out at 585 nM.

For the compound `CCc1cc2n(CC(=O)Nc3ccc(F)cn3)c3c(c(=O)n2n1)CN(C1CNC1)C3=O` [Example 243], the IC50 on human P2X3 receptor is 230 nM.

Consider `CCc1cc2n(CC(=O)Nc3ccc(F)cn3)c3c(c(=O)n2n1)CN(C1CCN(C2CCC2)C1)C3=O` (centres unmarked) [Example 254], for which the IC50 at human P2X3 receptor is 1150 nM.

With `CC(C)N1Cc2c(n(CC(=O)Nc3ccc(F)cn3)c3cc(C4CN(C)C4)nn3c2=O)C1=O` [Example 262], at human P2X3 receptor, the IC50 was determined as 127 nM.

Regarding `CCc1cc2n(CC(=O)Nc3ccc(F)cn3)c3c(c(=O)n2n1)CN(CC1CN(C(C)=O)C1)C3=O` [Example 268], on human P2X3 receptor, the IC50 turned out to be 580 nM.

Take `CCc1cc2n(CC(=O)Nc3ccc(F)cn3)c3c(c(=O)n2n1)CN(C1CN(C(C)=O)C1)C3=O` [Example 269]: the IC50 on human P2X3 receptor is 1500 nM.

Regarding `CCc1cc2n(CC(=O)Nc3ccc(F)cn3)c3c(c(=O)n2n1)CN(C1CN(S(C)(=O)=O)C1)C3=O` [Example 273], at human P2X3 receptor, the IC50 was 565 nM.

`CCc1cc2n(CC(=O)Nc3ccc(F)cn3)c3c(c(=O)n2n1)CN(CC(=O)N1CCOCC1)C3=O` [Example 291, 2-{2-ethyl-6-[2-(morpholin-4-yl)-2-oxoethyl]-5,8-dioxo-5,6,7,8-tetrahydro-4H-pyrazolo[1,5-a]pyrrolo[3,4-d]pyrimidin-4-yl}-N-(5-fluoropyridin-2-yl)acetamide]: at human P2X3 receptor, the IC50 stood at 415 nM.

On to `CCc1cc2n(CC(=O)Nc3ccc(F)cn3)c3c(c(=O)n2n1)CN(CC(=O)N(C)CC1CC1)C3=O` [Example 293], for which the IC50 on human P2X3 receptor came to 240 nM.

As to `CCc1cc2n(CC(=O)Nc3ccc(F)cn3)c3c(c(=O)n2n1)CN(CC(=O)N(C)C1CC1)C3=O` [Example 294], on human P2X3 receptor, the IC50 is 247 nM.

Values taken from US11319324B2, “Pyrazolo-pyrrolo-pyrimidine-dione derivatives as P2X3 inhibitors” (Bayer Aktiengesellschaft, priority 2017, dated 2022).
